Laboratory results: publication PMC12005801, “Non‐Membrane Active Peptide Resensitizes MRSA to β‐Lactam Antibiotics and Inhibits S. aureus Virulence” (Advanced Science, 2025)
Like-named read-outs stand apart in the source and are kept apart here.

Legend:
MRSA T144 [1] = experiment: Time-killing assay; type: cell-based, Staphylococcus aureus; conditions: identical concentrations alone: GN1 8 µg mL^−1, PIP 16 µg mL^−1, 12 h
Procedure: Briefly, overnight bacteria culture was diluted 1:1000 into LB and incubated for 4 h at 37 °C with 200 rpm. […] At the time points 0, 2, 4, 6, 8, 10, and 12 h, 100 µL bacteria culture was removed and resuspended in PBS and the serial dilutions were spotted on LB agar. After incubation overnight at 37 °C, the colony counts were calculated.

MRSA T144 [2] = experiment: MIC assay, agent alone; type: cell-based, Staphylococcus aureus; parameters: MIC^a, MIC in the presence of AMPs only: unit not given beside the values; conditions: for MIC: Staphylococcus aureus
S. aureus 29213 = experiment: MIC of β-lactams with/without GN1; type: cell-based, Staphylococcus aureus; conditions: for MIC: Staphylococcus aureus, antibiotic alone; for MIC (+1/2 MIC GN1): antibiotic + 1/2 MIC GN1
Procedure: MICs determination of drugs was based on the standard microdilution method as described previously.^[ [46] ^] Briefly, compounds were twofold serial dilution with MHB. Next, AMPs were added to the log‐phase bacteria suspensions (1 × 10^6 CFUs mL^−1) and then mixed with compounds in a 96‐well microliter plate (Corning, NY, USA).

MRSA T144 [3] = experiment: MIC assay of β-lactams in the presence of AMPs (potentiation); type: cell-based, Staphylococcus aureus; conditions: for Potentiation (fold)^c, MIC^a / MIC^b: antibiotic with 1/4 MIC GN1
Procedure: A) Potentiation of different AMPs to piperacillin (PIP) against MRSA T144. 1/4 MIC AMPs were mixed with bacteria (10^6 CFU mL^−1) in MH medium and cultured with diluted PIP in 96‐well plates overnight. […] All experiments were conducted with three biological replicates and data were presented as mean ± SD.

MRSA T144 [4] = conditions: addition of glutamate
Procedure: G) Fold changes in MIC values of various β‐lactams in the presence of glutamate against MRSA T144. […] All experiments were conducted with three biological replicates and data were presented as mean ± SD. Statistical significance was analyzed by ordinary one‐way or two‐way ANOVA (*P < 0.05, **P < 0.01, ***P < 0.001, ****P < 0.0001). ns, not significant.

[5] = MRSA T144, read-out: MIC^a, MIC in the presence of antibiotics only
[6] = MRSA, read-out: MIC^a, MIC in the presence of antibiotics only

| Molecule | MIC (MRSA T144 [2]; [5]) [µg/mL] | MIC (S. aureus 29213) [µg/mL] | MIC (+1/2 MIC GN1) (S. aureus 29213) [µg/mL] | MIC^b, MIC in combination of antibiotics and 1/4 MIC GN1 (MRSA T144 [3]) [µg/mL] | MIC (MRSA T144 [2]; [6]) [µg/mL] | Potentiation (fold)^c, MIC^a / MIC^b (MRSA T144 [3]) [fold] | further results |
| --- | --- | --- | --- | --- | --- | --- | --- |
| CCN1CCN(C(=O)N[C@@H](C(=O)N[C@@H]2C(=O)N3[C@@H]2SC(C)(C)[C@@H]3C(=O)O)c2ccccc2)C(=O)C1=O [Piperacillin] | > 512 | 2 | 0.5 | 8 |  |  | Time-kill kinetics, single agent (MRSA T144 [1]): failed to prevent bacterial proliferation; MIC (MRSA T144 [2]; MRSA T144, read-out: MIC of PIP alone): 512 µg/mL |
| Ac-WKVKWKVKWKVK-NH2 [WK-12] |  |  |  |  |  |  | MIC^a, MIC in the presence of AMPs only (MRSA T144 [2]; MRSA T144, microdilution in MHB, 1 × 10^6 CFUs mL^−1, 37 °C, 16–18 h, no unit in table (text gives µg mL^−1)): 32; Potentiation (fold)^c, MIC^c / MIC^b (MRSA T144 [3]; MIC of piperacillin only / MIC of piperacillin with 1/4 MIC AMP): 4 fold; MIC^b, MIC of piperacillin in the presence of 1/4 MIC AMPs (MRSA T144 [3]; label = the AMP added at 1/4 MIC, no unit in table (text gives µg mL^−1)): 128 |
| CC1(C)S[C@@H]2[C@H](NC(=O)C(C(=O)O)c3ccccc3)C(=O)N2[C@H]1C(=O)O (stereo partly drawn) [Carbenicillin] |  |  |  | 1 | 32 | 32 |  |
| N[C@@H](CCC(=O)O)C(=O)O [glutamate] |  |  |  |  |  |  | Reduction of MIC values of three β‐lactam antibiotics (MRSA T144 [4]): 2-16 fold |
| CO/N=C(\C(=O)N[C@@H]1C(=O)N2C(C(=O)[O-])=C(C[N+]3(C)CCCC3)CS[C@H]12)c1csc(N)n1 [Cefepime] |  | 4 | 2 | 2 | 8 | 4 |  |
| C[C@@H](O)[C@H]1C(=O)N2C(C(=O)O)=C(S[C@@H]3CN[C@H](C(=O)N(C)C)C3)[C@H](C)[C@H]12 [Meropenem] |  | 0.0625 | 0.03125 | 0.0625 | 1 | 16 |  |
| CC1(C)S[C@@H]2[C@H](NC(=O)[C@H](N)c3ccccc3)C(=O)N2[C@H]1C(=O)O [Ampicillin] | 512 | 16 | 8 | 8 |  | 64 |  |
| CO/N=C(\C(=O)N[C@@H]1C(=O)N2C(C(=O)O)=C(CSc3nc(=O)c(=O)[nH]n3C)CS[C@H]12)c1csc(N)n1 [Ceftriaxone] |  |  |  | 4 | 32 | 8 |  |
| Cc1onc(-c2ccccc2)c1C(=O)N[C@@H]1C(=O)N2[C@@H]1SC(C)(C)[C@@H]2C(=O)O [Oxacillin] | 1 |  |  | 0.03125 |  | 32 |  |
| CO/N=C(\C(=O)N[C@@H]1C(=O)N2C(C(=O)O)=C(COC(N)=O)CS[C@H]12)c1ccco1 [Cefuroxime] |  |  |  | 1 | 8 | 8 |  |
| CC1(C)S[C@@H]2[C@H](NC(=O)[C@H](C(=O)O)c3ccsc3)C(=O)N2[C@H]1C(=O)O [Ticarcillin] | 16 | 2 | 2 | 1 |  | 16 |  |
